Laboratory results from ChEMBL document CHEMBL1240505, “Studies on preparation and photodynamic mechanism of chlorin P6-13,15-N-(cyclohexyl)cycloimide (Chlorin-H) and its antitumor effect for photodynamic therapy in vitro and in vivo” (Bioorg Med Chem, 2010).
Calls of active or inactive are those of the source. No cut-off for these calls is given here.

Columns and labels:
[1] = system: A549; test: Induction of apoptosis in human A549 cells assessed as pre-necrotic cells at 4 uM after 24 hrs followed by irradiated with light dose 0.18 J/cm2 using annexin-V-PE/7-AAD double staining by flow cytometry; assay type: functional
[2] = system: A549; test: Induction of apoptosis in human A549 cells assessed as down regulation of […] mRNA expression at 4 uM after 24 hrs followed by irradiated with light dose 0.18 J/cm2 by RT-PCR analysis; assay type: functional, cell-based
[3] = system: A549; test: Cell cycle arrest in human A549 cells assessed as accumulation at G0/G1 phase at 4 uM after 24 hrs by flow cytometry; assay type: functional
[4] = system: A549; test: Antitumor activity against human A549 cells xenografted in nude BALB/C mouse assessed as dry tumor at 8 uM after 24 hrs followed by irradiated with light dose 78 J/cm2 measured after 10 days; assay type: functional, cell-based
[5] = system: A549; test: Cell cycle arrest in human A549 cells assessed as accumulation at S phase at 4 uM after 24 hrs by flow cytometry; assay type: functional
[6] = system: A549; test: Induction of apoptosis in human A549 cells assessed as live mitochondrial membrane depolarized cells at 4 uM after 24 hrs followed by irradiated with light dose 0.18 J/cm2 using JC-1 staining by flow cytometry; assay type: functional
[7] = system: A549; test: Induction of apoptosis in human A549 cells assessed as live mitochondrial membrane polarized cells at 4 uM after 24 hrs using JC-1 staining by flow cytometry; assay type: functional
[8] = system: A549; test: Induction of apoptosis in human A549 cells assessed as viable cells at 4 uM after 24 hrs using annexin-V FITC/PI double staining by flow cytometry; assay type: functional; details: A549, 24 h, read-out: Activity
[9] = system: HL-60; test: Cytotoxicity against human HL60 cells assessed as cell death at 4 uM after 24 hrs followed by irradiated with light dose 0.18 J/cm2 by MTT assay; assay type: functional, cell-based
[10] = system: A549; test: Induction of apoptosis in human A549 cells assessed as dying mitochondrial membrane depolarized cells at 4 uM after 24 hrs followed by irradiated with light dose 0.18 J/cm2 using JC-1 staining by flow cytometry; assay type: functional
[11] = system: SW480; test: Cytotoxicity against human SW480 cells assessed as cell death at 4 uM after 24 hrs followed by irradiated with light dose 0.18 J/cm2 by MTT assay; assay type: functional, cell-based
[12] = system: A549; test: Antitumor activity against human A549 cells xenografted in nude BALB/C mouse assessed as scab formation at 8 uM after 24 hrs followed by irradiated with light dose 78 J/cm2 measured after 20 days; assay type: functional, cell-based
[13] = system: A549; test: Cell cycle arrest in human A549 cells assessed as accumulation at G0/G1 phase at 4 uM after 24 hrs followed by irradiated with light dose 0.18 J/cm2 by flow cytometry; assay type: functional
[14] = system: A549; test: Induction of apoptosis in human A549 cells assessed as apoptotic cells at 4 uM after 24 hrs using annexin-V-PE/7-AAD double staining by flow cytometry; assay type: functional
[15] = system: A549; test: Induction of apoptosis in human A549 cells transfected with lentivirus p53-siRNA assessed as reduction of p53 mRNA level at 4 uM after 24 hrs followed by irradiated with light dose 0.18 J/cm2 by MTT assay; assay type: functional; parameters: scale not given: the % may be the effect or the level left
[16] = system: A549; test: Induction of apoptosis in human A549 cells assessed as upregulation of TNFSF13 mRNA expression at 4 uM after 24 hrs followed by irradiated with light dose 0.18 J/cm2 by RT-PCR analysis; assay type: functional, cell-based
[17] = system: A549; test: Induction of apoptosis in human A549 cells assessed as upregulation of Smac mRNA expression at 4 uM after 24 hrs followed by irradiated with light dose 0.18 J/cm2 by RT-PCR analysis; assay type: functional, cell-based
[18] = system: A549; test: Induction of apoptosis in human A549 cells assessed as down regulation of […] mRNA expression at 2 uM after 24 hrs followed by irradiated with light dose 0.18 J/cm2 by RT-PCR analysis; assay type: functional, cell-based
[19] = system: HL-60; test: Cytotoxicity against human HL60 cells assessed as cell survival at 4 uM after 24 hrs followed by irradiated with light dose 0.18 J/cm2 by MTT assay; assay type: functional; details: HL-60, light or radiation study, read-out: Activity
[20] = system: A549; test: Induction of apoptosis in human A549 cells assessed as late apoptotic cells at 4 uM after 24 hrs using annexin-V FITC/PI double staining by flow cytometry; assay type: functional
[21] = system: A549; test: Induction of apoptosis in human A549 cells assessed as apoptotic cells at 4 uM after 24 hrs followed by irradiated with light dose 0.18 J/cm2 using annexin-V FITC/PI double staining by flow cytometry; assay type: functional
[22] = system: A549; test: Inhibition of cell invasion in human A549 cells assessed as invasion index at 4 uM after 72 hrs relative to control; assay type: functional; details: A549, 72 h
[23] = Drug uptake in human A549 cell mitochondria by using Hoechst 33258 staining; assay type: ADME
[24] = system: A549; test: Antitumor activity against human A549 cells xenografted in nude BALB/C mouse assessed as dark tumor at 8 uM after 24 hrs followed by irradiated with light dose 78 J/cm2 measured after 10 days; assay type: functional, cell-based
[25] = system: A549; test: Cell cycle arrest in human A549 cells assessed as accumulation at G2/M phase at 4 uM after 24 hrs followed by irradiated with light dose 0.18 J/cm2 by flow cytometry; assay type: functional
[26] = system: A549; test: Induction of apoptosis in human A549 cells transfected with lentivirus GFP assessed as reduction of GFP mRNA level at 4 uM after 24 hrs followed by irradiated with light dose 0.18 J/cm2 by MTT assay; assay type: functional; parameters: scale not given: the % may be the effect or the level left
[27] = system: SGC-7901; test: Cytotoxicity against human SGC7901 cells assessed as cell death at 4 uM after 24 hrs followed by irradiated with light dose 0.18 J/cm2 by MTT assay; assay type: functional, cell-based
[28] = system: A549; test: Induction of apoptosis in human A549 cells assessed as pre-necrotic cells at 4 uM after 24 hrs using annexin-V FITC/PI double staining by flow cytometry; assay type: functional
[29] = system: A549; test: Inhibition of cell invasion in human A549 cells assessed as invasion index at 4 uM after 72 hrs followed by irradiated with light dose 0.18 J/cm2 relative to control; assay type: functional; details: A549, light or radiation study
[30] = Drug uptake in human A549 cell nucleus by using Hoechst 33258 staining; assay type: ADME, cell-based

In the case of `C=Cc1c(C)c2cc3nc(c4c5[nH]c(cc6nc(cc1[nH]2)C(C)=C6CC)c(C)c5C(=O)N(C1CCCCC1)C4=O)[C@@H](CCC(=O)O)[C@@H]3C`, the Activity [1] is reported as 7.63%, the Activity [2] is reported as “Active” and the Activity [3] is reported as 53.48%. For the same compound, the Activity [4] was “Active”, the Activity [5] was 35.44% and the Activity [6] was 0.01%. The Activity [7] was 0%, the viability at 4 µM [8] was 92.3% and the Activity [9] was “Active”. The Activity [10] was 8.28%, the Activity [11] was “Active” and the Activity [12] was “Active”. The Activity [13] was 22.37%, the Activity [14] was 2.96% and the Activity [15] was 60%. For the same compound, the Activity [16] was “Active”, the Activity [17] was “Active” and the Activity [18] was “Active”. It also gave a viability at 4 µM [19] of 78.6%, an Activity [20] of 3.03% and an Activity [21] of 74.24%. For the same compound, the inhibition at 4 µM [22] was 76.4%, the Drug uptake [23] was “Active” and the Activity [24] was “Active”. For the same compound, the Activity [25] was 56.07%, the Activity [26] was 18.8% and the Activity [27] was “Active”. For the same compound, the Activity [28] was 0.24%, the inhibition at 4 µM [29] was 15.7% and the Drug uptake [30] was “Active”.
